# Data reported in ChEMBL document CHEMBL1145424, “Novel boron-containing, nonclassical antifolates: synthesis and preliminary biological and structural evaluation” (J Med Chem, 2007).
# What was measured:
# SNB-7 = assay: Growth inhibition of human SNB7 cells after 72 hrs; format: functional, cell-based; settings: SNB-7, 72 h
# DLD-1 = assay: Growth inhibition of human DLD1 cells after 72 hrs; format: functional, cell-based; settings: DLD-1, 72 h
# ZR-75-1 = assay: Growth inhibition of human ZR-75-1 cells after 72 hrs; format: functional, cell-based; settings: ZR-75-1, 72 h
# PC-3 = assay: Growth inhibition of human PC3 cells after 72 hrs; format: functional, cell-based; settings: PC-3, 72 h
# CAKI-1 = assay: Growth inhibition of human CAKI1 cells after 72 hrs; format: functional, cell-based; settings: CAKI-1, 72 h
# NCI-H23 = assay: cells; settings: Homo sapiens, NCI-H23, 72 h
# Description: Growth inhibition of human NCI-H23 cells after 72 hrs
# LOX IMVI = assay: cells; settings: Homo sapiens, 72 h
# Description: Growth inhibition of human LOX IMVI cells after 72 hrs
compound,measurement,setting,value
CN(Cc1cnc2nc(N)nc(N)c2n1)c1ccc(C(=O)N[C@@H](CCC(=O)O)C(=O)O)cc1 [METHOTREXATE],IC50,SNB-7,> 60 µg/mL
same,IC50,DLD-1,> 60 µg/mL
same,IC50,ZR-75-1,> 60 µg/mL
same,IC50,PC-3,0.027 µg/mL
same,IC50,CAKI-1,> 60 µg/mL
same,IC50,NCI-H23,0.29 µg/mL
same,IC50,LOX IMVI,0.057 µg/mL
